Measured values published in patent publication US20100022491A1, “4-HYDROXY-2-OXO-2,3-DIHYDRO-1,3-BENZOTHIAZOL-7YL COMPOUNDS FOR MODULATION OF B2-ADRENORECEPTOR ACTIVITY” (ASTRAZENECA AB, priority 2006, published 2010).
Counter-ions that a name gives are not always drawn.

Target: T1, recombinant human α1D receptor (Homo sapiens, UniProt P25100)
T1 construct: expressed in transfected cells; host or cells: HEK293
T1 sequence (P25100 1-572): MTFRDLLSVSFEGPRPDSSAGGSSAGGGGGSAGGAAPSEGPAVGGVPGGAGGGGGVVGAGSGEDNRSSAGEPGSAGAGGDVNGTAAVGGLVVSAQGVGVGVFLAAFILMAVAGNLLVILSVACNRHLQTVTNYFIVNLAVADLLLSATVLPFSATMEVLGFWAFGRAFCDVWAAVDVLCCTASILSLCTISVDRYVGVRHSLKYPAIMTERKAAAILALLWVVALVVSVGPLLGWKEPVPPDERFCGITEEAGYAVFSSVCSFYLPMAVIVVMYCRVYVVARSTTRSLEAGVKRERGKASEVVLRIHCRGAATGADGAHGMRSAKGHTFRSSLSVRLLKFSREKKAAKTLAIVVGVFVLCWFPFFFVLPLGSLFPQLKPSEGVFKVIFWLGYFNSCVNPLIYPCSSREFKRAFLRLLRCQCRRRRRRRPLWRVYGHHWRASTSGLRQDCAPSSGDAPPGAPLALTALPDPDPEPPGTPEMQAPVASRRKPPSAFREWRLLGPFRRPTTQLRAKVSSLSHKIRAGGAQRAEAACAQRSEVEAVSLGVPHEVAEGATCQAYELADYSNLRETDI
Experiment: Adrenergic α1D selectivity binding assay ([3H]-prazosin)
Details: inhibition of [3H]-prazosin (0.3 nM) binding, HEK293 membranes
Procedure, shortened: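 Displacement of [3H]-prazosin (0.3 nM) from recombinant human α1D receptor in HEK293-cell membranes, 2 h at room temperature, pH 7.4 HEPES/EDTA/gelatin buffer. Filtration and scintillation counting, non-specific binding set with 10 μM BMY7378; four-parameter logistic fit gives pIC50.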

| SMILES | α1 bind pIC50 |
| --- | --- |
| O=C(CCNCCc1ccc(Cl)c(Cl)c1)N(CCNCCc1ccc(O)c2[nH]c(=O)sc12)C1CCOCC1 [Example 94, N^3-[2-(3,4-Dichlorophenyl)ethyl]-N-(2-{[2-(4-hydroxy-2-oxo-2,3-dihydro-1,3-benzothiazol-7-yl)ethyl]amino}ethyl)-N-(tetrahydro-2H-pyran-4-yl)-β-alaninamide dihydrobromide salt] | 6.2 |
| O=C(CCNCCc1cccc(F)c1)N(CCNCCc1ccc(O)c2[nH]c(=O)sc12)C1CCCCCC1 [Example 95, N-Cycloheptyl-N^3-[2-(3-fluorophenyl)ethyl]-N-(2-{[2-(4-hydroxy-2-oxo-2,3-dihydro-1,3-benzothiazol-7-yl)ethyl]amino}ethyl)-β-alaninamide dihydromide salt] | 6.8 |

Same assay, conditions: inhibition of [3H]-prazosin (0.3 nM) binding, HEK293 membranes; read-out: α1 bind pIC50 (converted)

| IC50 | SMILES |
| --- | --- |
| 0.0126 µM | O=C(CCNCCc1ccccc1)N(CCNCCc1ccc(O)c2[nH]c(=O)sc12)C1Cc2ccccc2C1 [Example 41, N^1-(2,3-Dihydro-1H-inden-2-yl)-N^1-(2-{[2-(4-hydroxy-2-oxo-2,3-dihydro-1,3-benzothiazol-7-yl)ethyl]amino}ethyl)-N^3-(2-phenylethyl)-β-alaninamide bis-trifluoroacetic acid salt] |
| 0.0794 µM | CC(CN(C(=O)CCNCCc1ccccc1)C1CCCCC1)NCCc1ccc(O)c2[nH]c(=O)sc12 (stereo not drawn) [Example 105, N-Cyclohexyl-N-(2-{[2-(4-hydroxy-2-oxo-2,3-dihydro-1,3-benzothiazol-7-yl)ethyl]amino}propyl)-N^3-(2-phenylethyl)-β-alaninamide bis-trifluoroacetic acid salt] |
| 0.251 µM | O=C(CCNCCc1cccc(Cl)c1)N(CCNCCc1ccc(O)c2[nH]c(=O)sc12)C1CCOCC1 [Example 22, N^3-[2-(3-Chlorophenyl)ethyl]-N-(2-{[2-(4-hydroxy-2-oxo-2,3-dihydro-1,3-benzothiazol-7-yl)ethyl]amino}ethyl)-N-(tetrahydro-2H-pyran-4-yl)-β-alaninamide bis-trifluoroacetic acid salt] |
| 0.0501 µM | CCCC[C@@H](C)N(CCNCCc1ccc(O)c2[nH]c(=O)sc12)C(=O)CCNCCc1ccccc1 [Example 101, N-(2-{[2-(4-Hydroxy-2-oxo-2,3-dihydro-1,3-benzothiazol-7-yl)ethyl]amino}ethyl)-N-[(1R)-1-methylpentyl]-N^3-(2-phenylethyl)-β-alaninamide bis-trifluoroacetic acid salt] |
| 0.316 µM | O=C(CCNCCc1cccc(F)c1)N(CCNCCc1ccc(O)c2[nH]c(=O)sc12)CC12CC3CC(CC(C3)C1)C2 [Example 60, N^1-(1-Adamantylmethyl)-N^3-[2-(3-fluorophenyl)ethyl]-N^1-(2-{[2-(4-hydroxy-2-oxo-2,3-dihydro-1,3-benzothiazol-7-yl)ethyl]amino}ethyl)-β-alaninamide bis-trifluoroacetic acid salt] |
| 0.158 µM | CCCC(CCC)N(CCNCCc1ccc(O)c2[nH]c(=O)sc12)C(=O)CCNCCc1cccc(F)c1 [Example 63, N^3-[2-(3-Fluorophenyl)ethyl]-N^1-(2-{[2-(4-hydroxy-2-oxo-2,3-dihydro-1,3-benzothiazol-7-yl)ethyl]amino}ethyl)-N^1-(1-propylbutyl)-β-alaninamide bis-trifluoroacetic acid salt] |
| 0.2 µM | COc1ccc(CCNCCC(=O)N(CCNCCc2ccc(O)c3[nH]c(=O)sc23)C2CCCCC2)cc1 [Example 68, N^1-Cyclohexyl-N^1-(2-{[2-(4-hydroxy-2-oxo-2,3-dihydro-1,3-benzothiazol-7-yl)ethyl]amino}ethyl)-N^3-[2-(4-methoxyphenyl)ethyl]-β-alaninamide bis-trifluoroacetic acid salt] |
| 0.158 µM | O=C(CCNCCc1cccc(F)c1)N(CCNCCc1ccc(O)c2[nH]c(=O)sc12)C1CCCCCC1 [Example 36, N-Cycloheptyl-N^3-[2-(3-fluorophenyl)ethyl]-N-(2-{[2-(4-hydroxy-2-oxo-2,3-dihydro-1,3-benzothiazol-7-yl)ethyl]amino}ethyl)-β-alaninamide bis-trifluoroacetic acid salt] |
| 0.126 µM | CC(C)(C)CN(CCNCCc1ccc(O)c2[nH]c(=O)sc12)C(=O)CCNCCc1ccccc1 [Example 6, N-(2,2-Dimethylpropyl)-N-(2-{[2-(4-hydroxy-2-oxo-2,3-dihydro-1,3-benzothiazol-7-yl)ethyl]amino}ethyl)-N^3-(2-phenylethyl)-β-alaninamide bis-trifluoroacetic acid salt] |
| 0.251 µM | CC(C)(CO)CN(CCNCCc1ccc(O)c2[nH]c(=O)sc12)C(=O)CCNCCc1cccc(Cl)c1 [Example 66, N^3-[2-(3-Chlorophenyl)ethyl]-N^1-(3-hydroxy-2,2-dimethylpropyl)-N^1-(2-{[2-(4-hydroxy-2-oxo-2,3-dihydro-1,3-benzothiazol-7-yl)ethyl]amino}ethyl)-β-alaninamide bis-trifluoroacetic acid salt] |
| 0.2 µM | O=C(CCNCCc1cccc(Cl)c1)N(CCNCCc1ccc(O)c2[nH]c(=O)sc12)C1CCCC1 [Example 30, N^3-[2-(3-Chlorophenyl)ethyl]-N-cyclopentyl-N-(2-{[2-(4-hydroxy-2-oxo-2,3-dihydro-1,3-benzothiazol-7-yl)ethyl]amino}ethyl)-β-alaninamide bis-trifluoroacetic acid salt] |
| 0.2 µM | O=C(CCNCCc1cccc(Cl)c1)N(CCNCCc1ccc(O)c2[nH]c(=O)sc12)C1CCCCC1 [Example 12, N^3-[2-(3-Chlorophenyl)ethyl]-N-cyclohexyl-N-(2-{[2-(4-hydroxy-2-oxo-2,3-dihydro-1,3-benzothiazol-7-yl)ethyl]amino}ethyl)-β-alaninamide bis-trifluoroacetic acid salt] |
| 0.2 µM | C[C@H](CNCCC(=O)N(CCNCCc1ccc(O)c2[nH]c(=O)sc12)C1CCCC1)c1ccccc1 [Example 31, N-cyclopentyl-N-(2-{[2-(4-hydroxy-2-oxo-2,3-dihydro-1,3-benzothiazol-7-yl)ethyl]amino}ethyl)-N^3-[(2S)-2-phenylpropyl]-β-alaninamide bis-trifluoroacetic acid salt] |
| 0.158 µM | COc1cccc(CCNCCC(=O)N(CCNCCc2ccc(O)c3[nH]c(=O)sc23)CC(C)(C)C)c1 [Example 43, N^1-(2,2-Dimethylpropyl)-N^1-(2-{[2-(4-hydroxy-2-oxo-2,3-dihydro-1,3-benzothiazol-7-yl)ethyl]amino}ethyl)-N^3-[2-(3-methoxyphenyl)ethyl]-β-alaninamide bis-trifluoroacetic acid salt] |
| 0.0501 µM | O=C(CCNCCc1ccccc1Cl)N(CCNCCc1ccc(O)c2[nH]c(=O)sc12)C1CCCCC1 [Example 17, N^3-[2-(2-Chlorophenyl)ethyl]-N-cyclohexyl-N-(2-{[2-(4-hydroxy-2-oxo-2,3-dihydro-1,3-benzothiazol-7-yl)ethyl]amino}ethyl)-β-alaninamide bis-trifluoroacetic salt] |
| 0.251 µM | CC(C)(C)CN(CCNCCc1ccc(O)c2[nH]c(=O)sc12)C(=O)CCNCCc1cccc(Cl)c1 [Example 7, N^3-[2-(3-Chlorophenyl)ethyl]-N-(2,2-dimethylpropyl)-N-(2-{[2-(4-hydroxy-2-oxo-2,3-dihydro-1,3-benzothiazol-7-yl)ethyl]amino}ethyl)-β-alaninamide bis-trifluoroacetic acid salt] |
| 0.0501 µM | O=C(CCNCCc1ccc(F)cc1Cl)N(CCNCCc1ccc(O)c2[nH]c(=O)sc12)C1CCCCCC1 [Example 57, N^3-[2-(2-Chloro-4-fluorophenyl)ethyl]-N^1-cycloheptyl-N^1-(2-{[2-(4-hydroxy-2-oxo-2,3-dihydro-1,3-benzothiazol-7-yl)ethyl]amino}ethyl)-β-alaninamide bis-trifluoroacetic acid salt] |
| 0.251 µM | O=C(CCNC[C@@H](O)c1ccccc1)N(CCNCCc1ccc(O)c2[nH]c(=O)sc12)C1CCCCC1 [Example 74, N^1-Cyclohexyl-N^1-(2-{[2-(4-hydroxy-2-oxo-2,3-dihydro-1,3-benzothiazol-7-yl)ethyl]amino}ethyl)-N^3-[(2S)-2-hydroxy-2-phenylethyl]-β-alaninamide bis-trifluoroacetic acid salt] |

| SMILES | IC50 |
| --- | --- |
| O=C(CCNCCc1cccc(F)c1F)N(CCNCCc1ccc(O)c2[nH]c(=O)sc12)C1CCCCC1 [Example 81, N^1-Cyclohexyl-N^3-[2-(2,3-difluorophenyl)ethyl]-N^1-(2-{[2-(4-hydroxy-2-oxo-2,3-dihydro-1,3-benzothiazol-7-yl)ethyl]amino}ethyl)-β-alaninamide bis-trifluoroacetic acid salt] | 0.2 µM |
| O=C(CCNCCc1ccccc1)N(CCNCCc1ccc(O)c2[nH]c(=O)sc12)C1CCCCCC1 [Example 98, N-Cycloheptyl-N-(2-{[2-(4-hydroxy-2-oxo-2,3-dihydro-1,3-benzothiazol-7-yl)ethyl]amino}ethyl)-N^3-(2-phenylethyl)-β-alaninamide dihydrobromide salt] | 0.0631 µM |
